Experimental data: patent US20230287044A1, “NOVEL ANTIBACTERIAL PEPTIDE AND USE THEREOF” (priority 2020, published 2023)
Converted amounts (≈) assume the structure as drawn. Like-named read-outs stand apart in the source and are kept apart here. Square brackets hold non-standard residues; d marks the D form. Ends that are not written are not given here. Peptide text beside a SMILES is read from it. * marks the point of attachment. NH(β-GlcNAc) = CC(=O)N[C@@H]1[C@@H](O)[C@H](O)[C@@H](CO)O[C@H]1N*; dTrp(5-OMe) = COc1ccc2[nH]cc(C[C@@H](N)C(=O)O)c2c1

How the values were obtained:
[1] = Solubility of antibacterial peptides in solution; assay type: physicochemical
[2] = test system: 30 species of Acinetobacter baumannii (A. baumannii); assay type: cell-based; settings: against 30 species of Acinetobacter baumannii
Protocol: In addition, the results obtained by measuring the minimum inhibitory concentrations of KSH29, KSH42 and KSH43 against 30 species of Acinetobacter baumannii (A. baumannii) are shown in Table 4 below.
The minimum inhibitory concentrations (MIC) against the 30 species of Acinetobacter baumannii were measured in the following manner.
The strain 1605 was purchased from ATCC (American Type Culture Collection, USA). In addition, the strain 40203 was purchased from the Korean Culture Center of Microorganisms.
The COL^R refers to resistance to colistin, the TGC^R refers to resistance to tigecycline, and the TGC^I refers to tigecycline intermediate strains.

[3] = test system: MRPA (P. aeruginosa) CCARM 2180; assay type: cell-based, Pseudomonas aeruginosa; settings: CCARM 2180, 18 h
Procedure, shortened: (§1)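 Mid-log cultures grown in CAMHB and diluted to 1× 10^6 cfu/ml in PBS were mixed with an equal volume of peptide in CAMHB (80 µM to 0.63 µM twofold dilutions). MIC taken as the mean of three independent experiments.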

[4] = test system: MRAB (A. baumannii) ATCC BAA 1605; assay type: cell-based, Acinetobacter baumannii; settings: ATCC BAA 1605, 18 h
Procedure, shortened: as §1

[5] = test system: MRSA (S. aureus) KCCM 40510; assay type: cell-based, Staphylococcus aureus; settings: KCCM 40510, 18 h
Procedure, shortened: as §1

[6] = test system: VRE (E. faecalis) ATCC 51575; assay type: cell-based, Enterococcus faecalis; settings: ATCC 51575, 18 h
Procedure, shortened: as §1

Compound | MIC MRPA (P. aeruginosa) CCARM 2180 [3] | MIC MRAB (A. baumannii) ATCC BAA 1605 [4] | MIC MRSA (S. aureus) KCCM 40510 [5] | MIC VRE (E. faecalis) ATCC 51575 [6] | other results
CC(C)[C@@H](NC(=O)[C@H](N)Cc1c[nH]c2ccccc12)C(=O)N[C@@H](C(=O)N[C@H](Cc1c[nH]c2ccccc12)C(=O)N[C@@H](C(=O)N[C@@H](C(=O)N[C@H](Cc1c[nH]c2ccccc12)C(=O)N[C@H](CCCNC(=N)N)C(=O)N[C@H](CCCNC(=N)N)C(=O)N[C@H](CCCNC(=N)N)C(N)=O)C(C)C)C(C)C)C(C)C [KSH42, wvvwvvwrrr] (H-[dW][dV][dV][dW][dV][dV][dW][dR][dR][dR]-NH2; N-terminus assumed) |  |  |  |  | solubility at 12 h ([1]; aqueous buffer): ≥ 100 µM; solubility at 12 h ([1]; plasma or biological fluid): 100 µM (≈ 144 µg/mL); solubility at 12 h ([1]; water): > 2000 µM; MIC50 [2]: 1.25 µM (≈ 1.8 µg/mL); MIC90 [2]: 1.25 µM (≈ 1.8 µg/mL)
CC[C@@H](C)[C@@H](NC(=O)[C@@H](Cc1c[nH]c2ccccc12)NC(=O)[C@@H](CCCNC(=N)N)NC(=O)[C@@H](CCCNC(=N)N)NC(=O)[C@H](N)CCCNC(=N)N)C(=O)N[C@H](Cc1c[nH]c2ccccc12)C(=O)N[C@@H](C(=O)N[C@H](CC(C)C)C(=O)N[C@H](Cc1c[nH]c2ccccc12)C(=O)N[C@H](CCCCN)C(=O)N[C@@H](CC(=O)N[C@@H]1O[C@H](CO)[C@@H](O)[C@H](O)[C@H]1NC(C)=O)C(N)=O)C(C)C [KSH48, rrrwiwvlwkN] (H-[dR][dR][dR][dW][dI][dW][dV][dL][dW][dK]D(NH(β-GlcNAc))-NH2; N-terminus assumed) | 2.5 µM (≈ 4.54 µg/mL) | 0.63 µM (≈ 1.14 µg/mL) | 2.5 µM (≈ 4.54 µg/mL) | 2.5 µM (≈ 4.54 µg/mL) | 
CC(C)[C@@H](NC(=O)[C@H](N)Cc1c[nH]c2ccccc12)C(=O)N[C@@H](C(=O)N[C@H](Cc1c[nH]c2ccccc12)C(=O)N[C@H](C)C(=O)N[C@H](C)C(=O)N[C@H](Cc1c[nH]c2ccccc12)C(=O)N[C@H](CCCNC(=N)N)C(=O)N[C@H](CCCNC(=N)N)C(=O)N[C@H](CCCNC(=N)N)C(N)=O)C(C)C [KSH72, wvvwaawrrr] (H-[dW][dV][dV][dW][dA][dA][dW][dR][dR][dR]-NH2; N-terminus assumed) | 10 µM (≈ 13.8 µg/mL) | 2.5 µM (≈ 3.46 µg/mL) | 2.5 µM (≈ 3.46 µg/mL) | 5 µM (≈ 6.92 µg/mL) | 
CC[C@@H](C)[C@@H](NC(=O)[C@@H](Cc1c[nH]c2ccccc12)NC(=O)[C@@H](C)NC(=O)[C@@H](C)NC(=O)[C@H](N)Cc1c[nH]c2ccccc12)C(=O)NCC(=O)N[C@H](CC(C)C)C(=O)N[C@H](CCCNC(=N)N)C(=O)N[C@H](CCCNC(=N)N)C(=O)N[C@H](CCCCN)C(=O)N[C@H](CCCCN)C(N)=O [KSH76, waawiglrrkk] (H-[dW][dA][dA][dW][dI]G[dL][dR][dR][dK][dK]-NH2; N-terminus assumed) | >10 µM | 1.25~2.5 µM | >10 µM | >10 µM | 
WLLWVYVRKKR-NH2 [XSH2] | 20 µM | 1.25 µM | 25 µM | 5 µM | 
WVVWVVYRKKR-NH2 [LSH7] | >40 µM | 5 µM | 20 µM | 20 µM | 
WLVYVWLRKKR-NH2 [LSH2] | 20 µM | 1.25 µM | 5 µM | 5 µM | 
CC[C@@H](C)[C@@H](NC(=O)[C@@H](Cc1c[nH]c2ccccc12)NC(=O)[C@@H](CCCNC(=N)N)NC(=O)[C@@H](CCCNC(=N)N)NC(=O)[C@H](N)CCCNC(=N)N)C(=O)N[C@H](Cc1c[nH]c2ccccc12)C(=O)N[C@@H](C(=O)N[C@H](CC(C)C)C(=O)N[C@H](Cc1c[nH]c2ccccc12)C(N)=O)C(C)C [KSH73, rrrwiwvlw] (H-[dR][dR][dR][dW][dI][dW][dV][dL][dW]-NH2; N-terminus assumed) | 2.5 µM (≈ 3.42 µg/mL) | 2.5 µM (≈ 3.42 µg/mL) | 1.25 µM (≈ 1.71 µg/mL) | 1.25 µM (≈ 1.71 µg/mL) | 
CC(C)[C@@H](NC(=O)[C@@H](Cc1c[nH]c2ccccc12)NC(=O)[C@@H](CCCNC(=N)N)NC(=O)[C@@H](CCCNC(=N)N)NC(=O)[C@H](N)CCCNC(=N)N)C(=O)N[C@H](Cc1c[nH]c2ccccc12)C(=O)N[C@@H](C(=O)N[C@@H](C(=O)N[C@@H](C(=O)N[C@H](Cc1c[nH]c2ccccc12)C(N)=O)C(C)C)C(C)C)C(C)C [KSH82, rrrwvwvvvw] (H-[dR][dR][dR][dW][dV][dW][dV][dV][dV][dW]-NH2; N-terminus assumed) | 10 µM (≈ 14.4 µg/mL) | 10 µM (≈ 14.4 µg/mL) | 1.25 µM (≈ 1.8 µg/mL) | 1.25 µM (≈ 1.8 µg/mL) | 
CC(C)[C@@H](NC(=O)[C@@H](Cc1c[nH]c2ccccc12)NC(=O)[C@@H](CCCNC(=N)N)NC(=O)[C@@H](CCCNC(=N)N)NC(=O)[C@H](N)CCCNC(=N)N)C(=O)N[C@@H](C(=O)N[C@@H](C(=O)N[C@@H](C(=O)N[C@H](Cc1c[nH]c2ccccc12)C(=O)N[C@H](Cc1c[nH]c2ccccc12)C(N)=O)C(C)C)C(C)C)C(C)C [KSH85, rrrwvvvvww] (H-[dR][dR][dR][dW][dV][dV][dV][dV][dW][dW]-NH2; N-terminus assumed) | 10 µM (≈ 14.4 µg/mL) | 10 µM (≈ 14.4 µg/mL) | 1.25 µM (≈ 1.8 µg/mL) | 1.25 µM (≈ 1.8 µg/mL) | 
CC[C@@H](C)[C@@H](NC(=O)[C@@H](Cc1c[nH]c2ccccc12)NC(=O)[C@@H](CC(C)C)NC(=O)[C@@H](CC(C)C)NC(=O)[C@H](N)Cc1c[nH]c2ccc(OC)cc12)C(=O)NCC(=O)N[C@H](CC(C)C)C(=O)N[C@H](CCCNC(=N)N)C(=O)N[C@H](CCCCN)C(=O)N[C@H](CCCCN)C(=O)N[C@H](CCCNC(=N)N)C(N)=O [KSH15, wMllwiglrkkr] (H-[dTrp(5-OMe)][dL][dL][dW][dI]G[dL][dR][dK][dK][dR]-NH2; N-terminus assumed) | 10 µM (≈ 15 µg/mL) | 1.25 µM (≈ 1.87 µg/mL) | 1.25 µM (≈ 1.87 µg/mL) | 2.5 µM (≈ 3.74 µg/mL) | 
CC[C@@H](C)[C@@H](NC(=O)[C@@H](Cc1c[nH]c2ccccc12)NC(=O)[C@@H](CCCCN)NC(=O)[C@@H](CCCNC(=N)N)NC(=O)[C@H](N)CCCNC(=N)N)C(=O)N[C@H](Cc1c[nH]c2ccccc12)C(=O)N[C@H](Cc1c[nH]c2ccccc12)C(=O)N[C@H](CC(C)C)C(=O)N[C@H](Cc1c[nH]c2ccccc12)C(=O)N[C@H](CCCCN)C(N)=O [KSH51, rrkwiwwlwk] (H-[dR][dR][dK][dW][dI][dW][dW][dL][dW][dK]-NH2; N-terminus assumed) | 5 µM (≈ 7.78 µg/mL) | 1.25 µM (≈ 1.95 µg/mL) | 1.25 µM (≈ 1.95 µg/mL) | 1.25 µM (≈ 1.95 µg/mL) | 
CC[C@@H](C)[C@@H](NC(=O)[C@@H](Cc1c[nH]c2ccccc12)NC(=O)[C@@H](CCCNC(=N)N)NC(=O)[C@@H](CCCNC(=N)N)NC(=O)[C@H](N)CCCNC(=N)N)C(=O)N[C@H](Cc1c[nH]c2ccccc12)C(=O)N[C@H](C)C(=O)N[C@H](C)C(=O)N[C@H](Cc1c[nH]c2ccccc12)C(=O)N[C@H](CCCCN)C(N)=O [KSH74, rrrwiwaawk] (H-[dR][dR][dR][dW][dI][dW][dA][dA][dW][dK]-NH2; N-terminus assumed) | >10 µM | 2.5 µM (≈ 3.57 µg/mL) | >10 µM | >10 µM | 
CN[C@H](CC(C)C)C(=O)N[C@H]1C(=O)N[C@@H](CC(N)=O)C(=O)N[C@H]2C(=O)N[C@H]3C(=O)N[C@H](C(=O)N[C@H](C(=O)O)c4cc(O)cc(O)c4-c4cc3ccc4O)[C@H](O)c3ccc(c(Cl)c3)Oc3cc2cc(c3O[C@@H]2O[C@H](CO)[C@@H](O)[C@H](O)[C@H]2O[C@H]2C[C@](C)(N)[C@H](O)[C@H](C)O2)Oc2ccc(cc2Cl)[C@H]1O [Vancomycin, reference compound] |  |  |  |  | solubility at 12 h ([1]; aqueous buffer, PBS, peptide 25 to 200 µM, 12 hours at room temperature, read-out: Solubility in solution PBS): > 200 µM; solubility at 12 h ([1]; plasma or biological fluid, CAMHB, peptide 25 to 200 µM, 12 hours at room temperature, read-out: Solubility in solution CAMHB): > 200 µM; solubility at 12 h ([1]; water, H2O, observed for 12 hours at room temperature, read-out: Solubility in solution H2O): > 2000 µM
WVLWVWLRKKR-NH2 [LSH1] | 20 µM | 2.5 µM | 2.5 µM | 2.5 µM | 
